Results: patent US9427429B2, “Cancer diagnosis and imaging” (Tau Therapeutics LLC, priority 2010, dated 2016)

How the values were obtained:
Format in all cases: cell-based
A10 cells = assay: Cell cycle analysis by flow cytometry and BUdR staining, with nocodazole block; conditions: for cell cycle arrest point: A10 cells treated 24 hours with T channel blocker before adding nocodazole, FIG. 3
Experimental: Cell cycle analysis was performed using flow cytometry and BUdR staining. In FIG. 3, “Con” represents untreated, control cells. All other cell cultures were treated with nocodazole, which interferes with microtubule polymerization and blocks the cell cycle during M phase. […] Therefore, cell cultures were treated for 24 hours with T channel calcium channel blockers mibefradil (mib), nickel (Ni) or TTL-1177 (a proprietary compound owned by the assignee Tau Therapeutics), before adding nocodazole.

[1] = test system: human lung cancer cells of cell line A549; assay: Cell cycle progression after mibefradil incubation, A549
Experimental: (§1) To measure the efficacy of the cell cycle inhibitor mibefradil at stopping progression through the cell cycle, human lung cancer cells of cell line A549 and human prostate cancer cells of cell line were incubated with 10 μM mibefradil for 48 hours (M48H). […] Further data was collected by incubating the same cell lines with 10 μM of mibefradil for 18 hours followed by a 12 hour washout followed by another […] incubation with mibefradil (M18-12-18h).

[2] = test system: human prostate cancer cells; assay: Cell cycle progression after mibefradil incubation, prostate cancer cells
Experimental: as §1

[3] = test system: human prostate cancer cells of cell line PC3; assay: Effect of mibefradil on the cell cycle of PC3 cells; conditions: PC3, 5 μM or 10 μM for 24 hours or 48 hours; effect of increasing concentration and contact time; FIG. 5
Experimental: To measure the effect of mibefradil on the cell cycle of human prostate cancer cells of cell line PC3, PC3 cells were incubated with varying concentrations of mibefradil for varying times. The PC3 cells were incubated with either a 5 μM concentration or a 10 μM concentration for either 24 hours or 48 hours.

[4] = test system: Human colon cancer cells, cell line HT29; assay: Uptake of imaging marker FDG after mibefradil, HT29; conditions: FDG 60 minutes after removal
Experimental: The efficacy of the uptake of imaging markers after treatment with a cell cycle inhibitor was determined. Human colon cancer cells, cell line HT29, were first incubated for 24 hours with the cell cycle inhibitor mibefradil at concentrations of 5 μM (5 uM-FDG-HT29) and 10 μM (10 uM-FDG-HT29). After 24 hours of incubation with the mibefradil, the HT29 cells were removed from mibefradil contact. After 60 minutes of being removed from mibefradil contact, the imaging marker 2-deoxy-2-(^18F)fluoro-D-glucose (hereinafter, “FDG”) was administered.
With a concentration of 10 μM of mibefradil, the increase in uptake of FDG was about 100% as compared to uptake of cells not incubated with mibefradil.

[5] = test system: human lung cancer cells of cell line A549; assay: Uptake of imaging marker 3H-FDG after mibefradil, A549; conditions: 3H-FDG 30 minutes after removal
Experimental: (§2) The uptake of an imaging marker was also determined in human lung cancer cells of cell line A549. A549 cells were incubated with 5 μM, 10 μM and 15 μM concentrations of the cell cycle inhibitor mibefradil for 24 hours. After 24 hours of incubation with the mibefradil, the A549 cells were removed from mibefradil contact. After 30 minutes of being removed from mibefradil contact, the imaging marker tritiated FDG (hereinafter “3H-FDG”) was administered. […] Although not shown, incubation of human prostate cancer cells of the PC3 cell line with 10 μM mibefradil for 72 hours increased uptake of the subsequently introduced imaging marker 3H-FDG by about 60%.

[6] = test system: human prostate cancer cells of the PC3 cell line; assay: Uptake of imaging marker 3H-FDG after mibefradil, PC3; conditions: PC3, 10 μM mibefradil for 72 hours; data not shown
Experimental: as §2

Structure (SMILES)	cell cycle arrest point (A10 cells)	proportion of cells in the G1 phase vs control ([1]; A549, 10 μM for 18 hours, 12 hour washout, another 8 hour incubation (M18-12-18h))	proportion of cells in the G1 phase ([1]; A549, 10 μM mibefradil for 48 hours (M48H), FIG. 4)	proportion of cells in the G1 phase vs control ([2]; 10 μM for 18 hours, 12 hour washout, another 8 hour incubation (M18-12-18h))	proportion of cells in the G1 phase ([2]; 10 μM mibefradil for 48 hours (M48H), FIG. 4)	proportion of cells in the G1 phase [3]	uptake of the imaging marker FDG vs cells not incubated ([4]; HT29, 5 μM and 10 μM mibefradil 24 hours, FIG. 6)	increase in uptake of FDG vs cells not incubated ([4]; HT29, 10 μM mibefradil 24 hours)	uptake of 3H-FDG ([5]; A549, 5 μM, 10 μM and 15 μM mibefradil 24 hours, FIG. 7)	mibefradil concentration of maximal 3H-FDG uptake ([5]; A549, 24 hours incubation, 5, 10, 15 μM tested) [µM]	increase in uptake of 3H-FDG [6]	cell cycle block (A10 cells; A10 cells, nocodazole alone, flow cytometry)
COCC(=O)O[C@]1(CCN(C)CCCc2nc3ccccc3[nH]2)CCc2cc(F)ccc2[C@@H]1C(C)C [mibefradil]	arrested cells at the cell cycle checkpoint between G0 and G1	greater proportion of cells in the G1 phase	increased the proportion of cells in the G1 phase	greater proportion of cells in the G1 phase	increased the proportion of cells in the G1 phase	increases the proportion of cells in the G1 phase	increased	about 100%	increase in uptake being observed at all concentrations	5	about 60%	–
[Ni] [nickel]	arrested cells at the cell cycle checkpoint between G0 and G1	–	–	–	–	–	–	–	–	–	–	–
COC(=O)Nc1nc2ccc(C(=O)c3cccs3)cc2[nH]1 [nocodazole]	–	–	–	–	–	–	–	–	–	–	–	blocked cell cycle transit through M phase
